Publication PMC3066128 (PLoS Biology, 2011)
Read-outs that look alike come from different tables or passages of the source.

Assays:
Ls-AChBP = Ls-AChBP (Lymnaea stagnalis, UniProt P58154); test: biochemical; type: binding
Description: (§1) Competitive binding assays with ^3H-epibatidine were carried out as previously published with minor modifications (see Text S1). Electrophysiological assays were carried out using the two-electrode voltage clamp technique. The cDNA encoding human α1 GlyR was subcloned into pGEM-HE for oocyte expression with a PCR strategy and verified by sequencing. The cDNA was linearized with NheI and transcribed with the T7 mMessage mMachine kit from Ambion. The cDNA encoding the human α7 nAChR was cloned into pMXT and linearized with BamHI for transcription with the SP6 mMessage mMachine kit from Ambion. All mutants were engineered using a Quikchange method (Stratagene) and verified by sequencing. Recordings were obtained from oocytes 2–5 d after injection with 50 nl of ∼1 ng/nl RNA. […] Student's t test was used for statistical comparison of paired observations.
Human neuroblastoma cells (SH-SY5Y) stably expressing human α7 nAChR were obtained from Christian Fuhrer (Department of Neurochemistry, Brain Research Institute, University of Zurich). […] The SPA beads were allowed to settle for 2-4 h and the radioactivity was measured in a Wallac 1450 MicroBeta liquid scintillation counter.

human α7 nAChR = molecular target: T1, human α7 nAChR (Homo sapiens, UniProt P36544); test: biochemical; type: binding
T1 construct: expressed in transfected cells
T1 sequence (P36544 23-502): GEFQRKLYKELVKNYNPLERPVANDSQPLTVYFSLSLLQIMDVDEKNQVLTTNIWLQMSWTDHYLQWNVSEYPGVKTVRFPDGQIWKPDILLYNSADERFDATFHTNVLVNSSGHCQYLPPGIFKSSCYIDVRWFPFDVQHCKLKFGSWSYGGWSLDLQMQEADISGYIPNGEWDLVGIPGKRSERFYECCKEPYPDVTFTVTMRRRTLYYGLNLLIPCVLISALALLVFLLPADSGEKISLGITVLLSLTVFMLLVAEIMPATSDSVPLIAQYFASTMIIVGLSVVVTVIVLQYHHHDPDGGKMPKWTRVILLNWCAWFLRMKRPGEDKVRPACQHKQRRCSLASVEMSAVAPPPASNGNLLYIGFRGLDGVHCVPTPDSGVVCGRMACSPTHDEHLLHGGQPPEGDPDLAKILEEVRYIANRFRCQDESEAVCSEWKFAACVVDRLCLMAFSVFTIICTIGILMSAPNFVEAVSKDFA
Description: Human neuroblastoma cells (SH-SY5Y) stably expressing human α7 nAChR were obtained from Christian Fuhrer (Department of Neurochemistry, Brain Research Institute, University of Zurich). The cells were maintained in DMEM/F12 (Dulbecco's Modified Eagle Medium / Nutrient Mixture F-12) supplemented with 10% fetal calf serum (FCS), 50 IU/mL penicillin, 50 µg/mL streptomycin and 0.1 mg/ml geneticin in 5% CO2 humidified atmosphere at 37°C. Batches of cells from several passages were washed 3x with PBS, harvested and after centrifuging aliquots, the cell-pellets were stored at -80°C until use. Although there appeared to be little batch-to-batch variation, only one passage was used for the triplicate experiments as described below. […] The SPA beads were allowed to settle for 2-4 h and the radioactivity was measured in a Wallac 1450 MicroBeta liquid scintillation counter. All radioligand binding data were evaluated by a nonlinear, least-squares curve fitting procedure using Graphpad Prism (version 5.0a, GraphPad Software, Inc., San Diego, CA). […]
Frozen cell pellets with the human α7 nAChR were thawed, homogenized in ice-cold binding buffer, sonicated before use and added at 0.1 mg/ml. […] After drying the filter-plates, scintillation fluid (MicroScint, Perkin Elmer) was added and the radioactivity was measured as above.

human α7 nAChR wt = molecular target: T2, human α7 nAChR wt (Homo sapiens, UniProt P36544); test: Two-electrode voltage clamp, wild type α7 nAChR in Xenopus oocytes; type: cell-based; conditions: co-applied with EC50 acetylcholine
T2 construct: expressed in transfected cells; host or cells: Xenopus oocytes injected with cRNA (pMXT)
T2 sequence (P36544 23-502): as above
Description: (§2) To address this question, we performed alanine-scanning mutagenesis of the homologous residues in the human GlyR or nAChR using structure-based sequence alignments with AChBP (see Figure S1). The two-electrode voltage-clamp technique was used to measure ligand potency on wild type and mutant GlyR or nAChR expressed in Xenopus oocytes. […] One of these mutants, F207A, was previously characterized in the work from Grundzinska et al..
(§3) For d-TC, previous mutagenesis studies have been carried out either on the muscle-type nAChR [1] or 5-HT3R [5],[12]. […] Both model systems either complicate the mutational analysis or make it difficult to derive conclusions that can be generalized to other CLRs. Here, we chose the human α7 nAChR to characterize the effect of homologous contact mutations on the potency of d-TC. The α7 nAChR, which is also a target of d-TC [4], is closely related to Ac-AChBP and is an attractive model system to extrapolate the results obtained from our X-ray crystal structures.
(§4) Competitive binding assays with ^3H-epibatidine were carried out as previously published with minor modifications (see Text S1). Electrophysiological assays were carried out using the two-electrode voltage clamp technique. The cDNA encoding human α1 GlyR was subcloned into pGEM-HE for oocyte expression with a PCR strategy and verified by sequencing. […]

human α7 nAChR Y93A = molecular target: T3, human α7 nAChR Y93A (Homo sapiens, UniProt P36544, Y115A); test: Two-electrode voltage clamp, α7 nAChR Y93A in Xenopus oocytes; type: cell-based; conditions: co-applied with EC50 acetylcholine
T3 construct: expressed in transfected cells; host or cells: Xenopus oocytes injected with cRNA (pMXT)
T3 sequence (P36544 23-502 Y115A): as the sequence (P36544 23-502) above, with Y93A counted along it
Description: as §2, §3, §4

human α7 nAChR S148A = molecular target: T4, human α7 nAChR S148A (Homo sapiens, UniProt P36544, S170A); test: Two-electrode voltage clamp, α7 nAChR S148A in Xenopus oocytes; type: cell-based; conditions: co-applied with EC50 acetylcholine
T4 construct: expressed in transfected cells; host or cells: Xenopus oocytes injected with cRNA (pMXT)
T4 sequence (P36544 23-502 S170A): as the sequence (P36544 23-502) above, with S148A counted along it
Description: as §2, §3, §4

human α7 nAChR E193A = molecular target: T5, human α7 nAChR E193A (Homo sapiens, UniProt P36544, E215A); test: Two-electrode voltage clamp, α7 nAChR E193A in Xenopus oocytes; type: cell-based; conditions: co-applied with EC50 acetylcholine
T5 construct: expressed in transfected cells; host or cells: Xenopus oocytes injected with cRNA (pMXT)
T5 sequence (P36544 23-502 E215A): as the sequence (P36544 23-502) above, with E193A counted along it
Description: as §2, §3, §4

human α7 nAChR S36A = molecular target: T6, human α7 nAChR S36A (Homo sapiens, UniProt P36544, S58A); test: Two-electrode voltage clamp, α7 nAChR S36A in Xenopus oocytes; type: cell-based; conditions: co-applied with EC50 acetylcholine
T6 construct: expressed in transfected cells; host or cells: Xenopus oocytes injected with cRNA (pMXT)
T6 sequence (P36544 23-502 S58A): as the sequence (P36544 23-502) above, with S36A counted along it
Description: as §2, §3, §4

human α7 nAChR W55A = molecular target: T7, human α7 nAChR W55A (Homo sapiens, UniProt P36544, W77A); test: Two-electrode voltage clamp, α7 nAChR W55A in Xenopus oocytes; type: cell-based; conditions: co-applied with EC50 acetylcholine
T7 construct: expressed in transfected cells; host or cells: Xenopus oocytes injected with cRNA (pMXT)
T7 sequence (P36544 23-502 W77A): as the sequence (P36544 23-502) above, with W55A counted along it
Description: as §2, §3, §4

human α7 nAChR Q117A = molecular target: T8, human α7 nAChR Q117A (Homo sapiens, UniProt P36544, Q139A); test: Two-electrode voltage clamp, α7 nAChR Q117A in Xenopus oocytes; type: cell-based; conditions: co-applied with EC50 acetylcholine
T8 construct: expressed in transfected cells; host or cells: Xenopus oocytes injected with cRNA (pMXT)
T8 sequence (P36544 23-502 Q139A): as the sequence (P36544 23-502) above, with Q117A counted along it
Description: as §2, §3, §4

human α7 nAChR L119A = molecular target: T9, human α7 nAChR L119A (Homo sapiens, UniProt P36544, L141A); test: Two-electrode voltage clamp, α7 nAChR L119A in Xenopus oocytes; type: cell-based; conditions: co-applied with EC50 acetylcholine
T9 construct: expressed in transfected cells; host or cells: Xenopus oocytes injected with cRNA (pMXT)
T9 sequence (P36544 23-502 L141A): as the sequence (P36544 23-502) above, with L119A counted along it
Description: as §2, §3, §4

human α7 nAChR G167A = molecular target: T10, human α7 nAChR G167A (Homo sapiens, UniProt P36544, G189A); test: Two-electrode voltage clamp, α7 nAChR G167A in Xenopus oocytes; type: cell-based; conditions: co-applied with EC50 acetylcholine
T10 construct: expressed in transfected cells; host or cells: Xenopus oocytes injected with cRNA (pMXT)
T10 sequence (P36544 23-502 G189A): as the sequence (P36544 23-502) above, with G167A counted along it
Description: as §2, §3, §4

mouse 5-HT3R = molecular target: mouse 5-HT3R; parameters: method as in PMID 10026168; conditions: taken from previous study; cited from earlier work
muscle-type nAChR = tested on: muscle-type nAChR; parameters: method as in PMID 8415719; conditions: heteropentameric muscle-type nAChR; cited from earlier work
5-HT3R = conditions: human versus mouse 5-HT3R; cited from earlier work
human α1 GlyR A101F = human α1 GlyR A101F (Homo sapiens, UniProt P23415, A129F); test: cell-based; conditions: for mut/wt: IC50 α1 GlyR A101F over wt
human α1 GlyR A101F, sequence (P23415 29-457 A129F): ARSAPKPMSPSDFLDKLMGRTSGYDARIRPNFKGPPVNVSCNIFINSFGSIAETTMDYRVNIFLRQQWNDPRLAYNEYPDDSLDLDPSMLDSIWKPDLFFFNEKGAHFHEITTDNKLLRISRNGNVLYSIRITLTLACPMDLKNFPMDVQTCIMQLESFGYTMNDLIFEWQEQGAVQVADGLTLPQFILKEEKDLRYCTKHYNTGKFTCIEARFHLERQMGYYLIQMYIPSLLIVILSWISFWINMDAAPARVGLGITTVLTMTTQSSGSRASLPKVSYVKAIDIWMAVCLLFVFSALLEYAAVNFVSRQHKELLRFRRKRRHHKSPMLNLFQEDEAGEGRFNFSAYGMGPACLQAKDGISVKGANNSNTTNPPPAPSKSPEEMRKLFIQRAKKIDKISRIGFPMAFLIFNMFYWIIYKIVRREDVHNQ
Description: as §2, §1

human α1 GlyR F207A = human α1 GlyR F207A (Homo sapiens, UniProt P23415, F235A); test: cell-based
human α1 GlyR F207A, sequence (P23415 29-457 F235A): as the sequence (P23415 29-457 A129F) above, with F101A, F207A counted along it
Description: as §2, §1

human α1 GlyR F44A = human α1 GlyR F44A (Homo sapiens, UniProt P23415, F72A); test: cell-based; conditions: for mut/wt: IC50 α1 GlyR F44A over wt
human α1 GlyR F44A, sequence (P23415 29-457 F72A): as the sequence (P23415 29-457 A129F) above, with F44A, F101A counted along it
Description: as §2, §1

human α1 GlyR I210A = human α1 GlyR I210A (Homo sapiens, UniProt P23415, I238A); test: cell-based
human α1 GlyR I210A, sequence (P23415 29-457 I238A): as the sequence (P23415 29-457 A129F) above, with F101A, I210A counted along it
Description: as §2, §1

human α1 GlyR L127A = human α1 GlyR L127A (Homo sapiens, UniProt P23415, L155A); test: cell-based; conditions: for mut/wt: IC50 α1 GlyR L127A over wt
human α1 GlyR L127A, sequence (P23415 29-457 L155A): as the sequence (P23415 29-457 A129F) above, with F101A, L127A counted along it
Description: as §2, §1

human α1 GlyR Q177A = human α1 GlyR Q177A (Homo sapiens, UniProt P23415, Q205A); test: cell-based; conditions: for mut/wt: IC50 α1 GlyR Q177A over wt
human α1 GlyR Q177A, sequence (P23415 29-457 Q205A): as the sequence (P23415 29-457 A129F) above, with F101A, Q177A counted along it
Description: as §2, §1

human α1 GlyR Q67A = human α1 GlyR Q67A (Homo sapiens, UniProt P23415, Q95A); test: cell-based; conditions: for mut/wt: IC50 α1 GlyR Q67A over wt
human α1 GlyR Q67A, sequence (P23415 29-457 Q95A): as the sequence (P23415 29-457 A129F) above, with Q67A, F101A counted along it
Description: as §2, §1

human α1 GlyR S129A = human α1 GlyR S129A (Homo sapiens, UniProt P23415, S157A); test: cell-based; conditions: for mut/wt: IC50 α1 GlyR S129A over wt
human α1 GlyR S129A, sequence (P23415 29-457 S157A): as the sequence (P23415 29-457 A129F) above, with F101A, S129A counted along it
Description: as §2, §1

human α1 GlyR S158A = human α1 GlyR S158A (Homo sapiens, UniProt P23415, S186A); test: cell-based; conditions: for mut/wt: IC50 α1 GlyR S158A over wt
human α1 GlyR S158A, sequence (P23415 29-457 S186A): as the sequence (P23415 29-457 A129F) above, with F101A, S158A counted along it
Description: as §2, §1

human α1 GlyR wt = human α1 GlyR wt (Homo sapiens, UniProt P23415); test: cell-based
human α1 GlyR wt, sequence (P23415 29-457): as the sequence (P23415 29-457 A129F) above, with F101A counted along it
Description: as §2, §1

α1 GlyR F63A [1] = conditions: IC50 α1 GlyR F63A (ref 23) over wt
α1 GlyR R65A [2] = conditions: IC50 α1 GlyR R65A (ref 23) over wt
human α1 GlyR = conditions: taken from previous study; cited from earlier work
α1 GlyR F63A [3] = conditions: ref Grudzinska et al. 23; cited from earlier work
α1 GlyR R65A [4] = conditions: ref Grudzinska et al. 23; cited from earlier work

Ls-AChBP, sequence (P58154 20-229): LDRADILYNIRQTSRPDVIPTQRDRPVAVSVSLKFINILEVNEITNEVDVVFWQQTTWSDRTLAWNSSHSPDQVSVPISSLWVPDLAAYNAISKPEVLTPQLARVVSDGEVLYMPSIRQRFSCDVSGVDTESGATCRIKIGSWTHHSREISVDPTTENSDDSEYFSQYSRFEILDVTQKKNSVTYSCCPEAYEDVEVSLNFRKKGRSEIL

With COc1cc2c3cc1Oc1cc(ccc1O)C[C@@H]1c4c(cc(OC)c(O)c4Oc4ccc(cc4)C[C@@H]3N(C)CC2)CC[N+]1(C)C [d-tubocurarine] the Ki (Ls-AChBP) was 171 ± 18.3 nM, the Ki (human α7 nAChR; competition with 3H-methyllycaconitine, human α7 nAChR, read-out: Ki) was 2.98 µM and the IC50 (human α7 nAChR wt) was 1190 ± 170 nM. It also gave an IC50 (human α7 nAChR Y93A) of 7.81 ± 0.98 µM, an IC50 (human α7 nAChR S148A) of 176 ± 10.8 µM and an IC50 (human α7 nAChR E193A) of 8.1 ± 0.68 µM. The IC50 (human α7 nAChR S36A) was 2250 ± 520 nM, the IC50 (human α7 nAChR W55A) was 16.7 ± 0.94 µM and the IC50 (human α7 nAChR Q117A) was 2280 ± 140 nM. The IC50 (human α7 nAChR L119A) was 9.19 ± 2.16 µM, the IC50 (human α7 nAChR G167A) was “significant decrease in the IC50-values” and the IC50 (human α7 nAChR G167A; read-out: IC50) was 43 ± 2 nM. For the same compound, the Ki (mouse 5-HT3R) was 138 ± 22 nM, the “difference in affinity between the two binding sites” value (muscle-type nAChR) was 100 fold and the “difference in affinity between human and mouse 5-HT3R” value (5-HT3R) was “more than 1,000 fold”.

Compound O=C1C[C@@H]2OCC=C3CN4CC[C@]56c7ccccc7N1[C@H]5[C@H]2[C@H]3C[C@H]46 [strychnine] has a Ki (Ls-AChBP) of 224 ± 26.3 nM, a Ki (human α7 nAChR) of 4.85 µM and an IC50 (human α1 GlyR A101F) of 583 ± 47.6 nM. The mut/wt (human α1 GlyR A101F) was roughly 10, the mut/wt (human α1 GlyR A101F; listed as Strychnine) was 12 and the IC50 (human α1 GlyR F207A) was 5.59 ± 1.89 mM. The mut/wt (human α1 GlyR F207A; IC50 α1 GlyR F207A over wt) was 119,444, the IC50 (human α1 GlyR F44A) was 130 ± 4.06 nM and the mut/wt (human α1 GlyR F44A) was 3. For the same compound, the mut/wt (human α1 GlyR F44A; listed as Strychnine) was 2.8, the IC50 (human α1 GlyR I210A) was 103 ± 19 nM and the mut/wt (human α1 GlyR I210A; IC50 α1 GlyR I210A over wt) was 2.2. For the same compound, the IC50 (human α1 GlyR L127A) was 376 ± 69.2 nM, the mut/wt (human α1 GlyR L127A) was roughly 10 and the mut/wt (human α1 GlyR L127A; listed as Strychnine) was 8. For the same compound, the IC50 (human α1 GlyR Q177A) was 3.36 ± 0.63 nM, the mut/wt (human α1 GlyR Q177A) was “apparent increase in strychnine-potency” and the mut/wt (human α1 GlyR Q177A; listed as Strychnine) was 0.1. The IC50 (human α1 GlyR Q177A; α1 GlyR Q177A, co-applied with EC50 glycine) was “significant decrease in the IC50-values”, the IC50 (human α1 GlyR Q67A) was 689 ± 176 nM and the mut/wt (human α1 GlyR Q67A) was 15. It also gave a mut/wt (human α1 GlyR Q67A; listed as Strychnine) of 14.7, an IC50 (human α1 GlyR S129A) of 358 ± 144 nM and a mut/wt (human α1 GlyR S129A) of roughly 10. For the same compound, the mut/wt (human α1 GlyR S129A; listed as Strychnine) was 8, the IC50 (human α1 GlyR S158A) was 13.8 µM and the mut/wt (human α1 GlyR S158A) was 300. The mut/wt (human α1 GlyR S158A; listed as Strychnine) was 294, the IC50 (human α1 GlyR wt) was 46.8 ± 8.75 nM and the mut/wt (α1 GlyR F63A [1]) was 250. The mut/wt (α1 GlyR F63A [1]; listed as Strychnine) was 256, the mut/wt (α1 GlyR R65A [2]) was 3 and the mut/wt (α1 GlyR R65A [2]; listed as Strychnine) was 3.4. For the same compound, the Ki (human α1 GlyR) was 16 ± 2 nM, the IC50 (α1 GlyR F63A [3]) was 12 µM and the IC50 (α1 GlyR R65A [4]) was 160 ± 50 nM.
